# The source made the active and inactive calls. The rule behind the calls is not given here.
# Key:
# [1] = target: T1, Lanosterol 14-alpha demethylase (Candida albicans (strain SC5314 / ATCC MYA-2876) (Yeast), UniProt P10613); assay: Inhibition of CYP51 in Candida albicans SC5314 assessed as unknown sterol level at 4 ug/ml incubated for 16 hrs by GC-MS analysis (reference value: 5.35 %); set-up: scale not given: the % may be the effect or the level left; conditions: at 4 µg/mL
# [2] = target: T1, Lanosterol 14-alpha demethylase; assay: Inhibition of CYP51 in Candida albicans SC5314 assessed as lanosterol level at 4 ug/ml incubated for 16 hrs by GC-MS analysis relative to control; set-up: scale not given: the % may be the effect or the level left; conditions: at 4 µg/mL
# Candida albicans [3] = assay: Antifungal activity against Candida albicans SC5314 assessed as fungal growth inhibition incubated for 72 hrs by CLSI based susceptibility test; format: functional
# Nakaseomyces glabratus = assay: Antifungal activity against Candida glabrata assessed as fungal growth inhibition incubated for 72 hrs by CLSI based susceptibility test; format: functional
# Candida tropicalis = assay: Antifungal activity against Candida tropicalis ATCC 1369 assessed as fungal growth inhibition incubated for 72 hrs by CLSI based susceptibility test; format: functional
# Cryptococcus neoformans = assay: Antifungal activity against Cryptococcus neoformans ZKCC 2209 assessed as fungal growth inhibition incubated for 72 hrs by CLSI based susceptibility test; format: functional
# Aspergillus fumigatus = assay: Antifungal activity against Aspergillus fumigatus KM8001 assessed as fungal growth inhibition incubated for 72 hrs by CLSI based susceptibility test; format: functional
# Candida albicans [4] = assay: Antifungal activity against FLC-resistant Candida albicans 632 assessed as fungal growth inhibition incubated for 72 hrs by CLSI based susceptibility test; format: functional
# Candida albicans [5] = assay: Antifungal activity against FLC-resistant Candida albicans 17# assessed as fungal growth inhibition incubated for 72 hrs by CLSI based susceptibility test; format: functional
# Candida albicans [6] = assay: Antifungal activity against FLC-resistant Candida albicans CaR assessed as fungal growth inhibition incubated for 72 hrs by CLSI based susceptibility test; format: functional
# Candida albicans [7] = assay: Antifungal activity against FLC-resistant Candida albicans 901 assessed as fungal growth inhibition incubated for 72 hrs by CLSI based susceptibility test; format: functional
# Candida albicans [8] = assay: Antifungal activity against FLC-resistant Candida albicans 904 assessed as fungal growth inhibition incubated for 72 hrs by CLSI based susceptibility test; format: functional
# [9] = target: T1, Lanosterol 14-alpha demethylase; assay: Inhibition of CYP51 in Candida albicans SC5314 using lanosterol as substrate incubated for 60 mins by HPLC analysis
# Candida albicans [10] = assay: Induction of mitochondrial membrane depolarization in Candida albicans SC5314 by JC-1 staining based flow cytometry (reference value: 12.51 %); format: functional
# Candida albicans [11] = assay: Induction of apoptosis in Candida albicans SC5314 assessed as apoptotic cells incubated for 48 hrs by annexin V-FITC/PI staining based flow cytometry (reference value: 2.12 %); format: functional
# Candida albicans [12] = assay: Induction of apoptosis in Candida albicans SC5314 assessed as necrotic cells incubated for 48 hrs by annexin V-FITC/PI staining based flow cytometry (reference value: 2.12 %); format: functional
# Candida albicans [13] = assay: Antifungal activity against Candida albicans 901 infected in BALB/c mouse assessed as reduction in fungal growth at 0.5 ug/g administered 6 times measured after 4 days by H and E staining based analysis; format: functional, organism-based; conditions: dose 0.5 µg/g, time 4.0 day
# Candida albicans [14] = assay: Antifungal activity against Candida albicans 901 infected in BALB/c mouse assessed as inhibition of fungal proliferation at 0.5 ug/g administered 6 times measured after 4 days in presence of Biphenyl isopropyl ester by Masson staining based analysis; format: functional, organism-based; conditions: dose 0.5 µg/g, time 4.0 day
# Candida albicans [15] = assay: Antifungal activity against Candida albicans 901 infected in BALB/c mouse assessed as inhibition of fungal proliferation at 0.5 ug/g administered 6 times measured after 4 days in presence of Biphenyl isopropyl ester by GMS staining based analysis; format: functional, organism-based; conditions: dose 0.5 µg/g, time 4.0 day
# Candida albicans [16] = assay: Antifungal activity against Candida albicans 901 infected in BALB/c mouse assessed as decrease in collagen fiber content at 0.5 ug/g administered 6 times measured after 4 days in presence of Biphenyl isopropyl ester by Masson staining based analysis; format: functional, organism-based; conditions: dose 0.5 µg/g, time 4.0 day
# Candida albicans [17] = assay: Antifungal activity against Candida albicans 901 infected in BALB/c mouse assessed as decrease in collagen fiber content at 0.5 ug/g administered 6 times measured after 4 days in presence of Biphenyl isopropyl ester by GMS staining based analysis; format: functional, organism-based; conditions: dose 0.5 µg/g, time 4.0 day
# Candida albicans [18] = assay: Antifungal activity against Candida albicans 901 infected in BALB/c mouse assessed as repair of tissue damage at 0.5 ug/g administered 6 times measured after 4 days in presence of Biphenyl isopropyl ester by Masson staining based analysis; format: functional, organism-based; conditions: dose 0.5 µg/g, time 4.0 day
# Candida albicans [19] = assay: Antifungal activity against Candida albicans 901 infected in BALB/c mouse assessed as repair of tissue damage at 0.5 ug/g administered 6 times measured after 4 days in presence of Biphenyl isopropyl ester by GMS staining based analysis; format: functional, organism-based; conditions: dose 0.5 µg/g, time 4.0 day
# [20] = Toxicity in BALB/c mouse infected with Candida albicans 901 assessed as pathological change in heart at 0.5 ug/g administered 6 times measured after 4 days in presence of Biphenyl isopropyl ester by H and E staining based analysis; format: tissue-based; conditions: in vivo, 96 h, dose 0.5 µg/g, time 4 day
# [21] = Toxicity in BALB/c mouse infected with Candida albicans 901 assessed as pathological change in lung at 0.5 ug/g administered 6 times measured after 4 days in presence of Biphenyl isopropyl ester by H and E staining based analysis; format: tissue-based; conditions: in vivo, 96 h, dose 0.5 µg/g, time 4 day
# [22] = Toxicity in BALB/c mouse infected with Candida albicans 901 assessed as pathological change in spleen at 0.5 ug/g administered 6 times measured after 4 days in presence of Biphenyl isopropyl ester by H and E staining based analysis; format: tissue-based; conditions: in vivo, 96 h, dose 0.5 µg/g, time 4 day
# [23] = Toxicity in BALB/c mouse infected with Candida albicans 901 assessed as pathological change in liver at 0.5 ug/g administered 6 times measured after 4 days in presence of Biphenyl isopropyl ester by H and E staining based analysis; format: tissue-based; conditions: in vivo, 96 h, dose 0.5 µg/g, time 4 day
# [24] = Toxicity in BALB/c mouse infected with Candida albicans 901 assessed as pathological change in kidney at 0.5 ug/g administered 6 times measured after 4 days in presence of Biphenyl isopropyl ester by H and E staining based analysis; format: tissue-based; conditions: in vivo, 96 h, dose 0.5 µg/g, time 4 day
# Mus musculus [25] = assay: Antiinflammatory activity in BALB/c mouse infected with Candida albicans 901 assessed as decrease in INF-gamma level at 0.5 ug/g administered 6 times measured after 4 days by Western blot analysis; format: functional, organism-based; conditions: dose 0.5 µg/g, time 4.0 day
# Mus musculus [26] = assay: Antiinflammatory activity in BALB/c mouse infected with Candida albicans 901 assessed as decrease in NLRP3 level at 0.5 ug/g administered 6 times measured after 4 days by Western blot analysis; format: functional, organism-based; conditions: dose 0.5 µg/g, time 4.0 day
# Mus musculus [27] = assay: Antiinflammatory activity in BALB/c mouse infected with Candida albicans 901 assessed as decrease in kappaB-p65 level at 0.5 ug/g administered 6 times measured after 4 days by Western blot analysis; format: functional, organism-based; conditions: dose 0.5 µg/g, time 4.0 day
# Candida albicans [28] = assay: Induction of immunity in BALB/c mouse infected with Candida albicans 901 assessed as decrease in PD-L1 level at 0.5 ug/g administered 6 times measured after 4 days by Western blot analysis; format: functional, organism-based; conditions: dose 0.5 µg/g, time 4.0 day
# Candida albicans [29] = assay: Induction of immunity in BALB/c mouse infected with Candida albicans 901 assessed as decrease in PD-L1 level at 0.5 ug/g administered 6 times measured after 4 days in presence of Biphenyl isopropyl ester by Western blot analysis; format: functional, organism-based; conditions: dose 0.5 µg/g, time 4.0 day
# Candida albicans [30] = assay: Induction of immunity in BALB/c mouse infected with Candida albicans 901 assessed as decrease in PD-L1 level at 0.5 ug/g administered 6 times measured after 4 days by IHC analysis; format: functional, organism-based; conditions: dose 0.5 µg/g, time 4.0 day
# Candida albicans [31] = assay: Induction of immunity in BALB/c mouse infected with Candida albicans 901 assessed as decrease in PD-L1 level at 0.5 ug/g administered 6 times measured after 4 days in presence of Biphenyl isopropyl ester by IHC analysis; format: functional, organism-based; conditions: dose 0.5 µg/g, time 4.0 day
# T1 sequence (P10613 whole entry): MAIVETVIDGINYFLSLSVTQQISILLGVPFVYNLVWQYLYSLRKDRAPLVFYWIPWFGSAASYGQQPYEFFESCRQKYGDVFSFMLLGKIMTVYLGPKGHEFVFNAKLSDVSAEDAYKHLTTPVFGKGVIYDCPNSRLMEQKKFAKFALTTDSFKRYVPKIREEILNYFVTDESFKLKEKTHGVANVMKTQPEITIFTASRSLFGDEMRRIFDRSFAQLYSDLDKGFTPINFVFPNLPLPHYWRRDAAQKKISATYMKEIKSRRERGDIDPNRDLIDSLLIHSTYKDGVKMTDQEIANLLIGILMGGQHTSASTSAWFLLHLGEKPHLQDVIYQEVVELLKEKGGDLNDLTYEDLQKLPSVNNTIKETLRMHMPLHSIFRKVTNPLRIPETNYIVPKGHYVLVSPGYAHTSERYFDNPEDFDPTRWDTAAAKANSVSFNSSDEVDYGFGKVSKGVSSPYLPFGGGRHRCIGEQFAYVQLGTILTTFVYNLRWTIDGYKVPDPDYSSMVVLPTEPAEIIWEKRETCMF
smiles,measurement,setting,value
CC(=O)N1CCN(c2ccc(OCC3COC(Cn4ccnc4)(c4ccc(Cl)cc4Cl)O3)cc2)CC1 (stereo not given) [KETOCONAZOLE],Activity,[1],5.07%
same,Activity,[2],13.06%
same,MIC50,Candida albicans [3],0.25 µg/mL
same,MIC50,Nakaseomyces glabratus,1 µg/mL
same,MIC50,Candida tropicalis,0.5 µg/mL
same,MIC50,Cryptococcus neoformans,4 µg/mL
same,MIC50,Aspergillus fumigatus,4 µg/mL
same,MIC50,Candida albicans [4],≥ 8 µg/mL
same,MIC50,Candida albicans [5],4 µg/mL
same,MIC50,Candida albicans [6],≥ 8 µg/mL
same,MIC50,Candida albicans [7],4 µg/mL
same,MIC50,Candida albicans [8],4 µg/mL
same,IC50,[9],130 nM
same,Activity,Candida albicans [10],34.74%
same,Activity,Candida albicans [11],25.91%
same,Activity,Candida albicans [12],25.91%
same,Activity,Candida albicans [13],Active
same,inhibition,Candida albicans [14],Active
same,inhibition,Candida albicans [15],Active
same,Activity,Candida albicans [16],Active
same,Activity,Candida albicans [17],Active
same,Activity,Candida albicans [18],Active
same,Activity,Candida albicans [19],Active
same,Activity,[20],Non-Toxic
same,Activity,[21],Non-Toxic
same,Activity,[22],Non-Toxic
same,Activity,[23],Non-Toxic
same,Activity,[24],Non-Toxic
same,Activity,Mus musculus [25],inactive
same,Activity,Mus musculus [26],inactive
same,Activity,Mus musculus [27],inactive
same,Activity,Candida albicans [28],Active
same,Activity,Candida albicans [29],Active
same,Activity,Candida albicans [30],Active
same,Activity,Candida albicans [31],Active
